Here are results for 1 compound from US9868735B2, “Benzazepine ketone compounds as glycogen phosphorylase inhibitor, preparation method therefor, and medical uses” (CHENGDE MEDICAL UNIVERSITY, priority 2013, dated 2018).

The target of the assay is T1, rabbit muscle glycogen phosphorylase (GPa) (Oryctolagus cuniculus, UniProt P00489).
T1 sequence (P00489 2-843 limits assumed): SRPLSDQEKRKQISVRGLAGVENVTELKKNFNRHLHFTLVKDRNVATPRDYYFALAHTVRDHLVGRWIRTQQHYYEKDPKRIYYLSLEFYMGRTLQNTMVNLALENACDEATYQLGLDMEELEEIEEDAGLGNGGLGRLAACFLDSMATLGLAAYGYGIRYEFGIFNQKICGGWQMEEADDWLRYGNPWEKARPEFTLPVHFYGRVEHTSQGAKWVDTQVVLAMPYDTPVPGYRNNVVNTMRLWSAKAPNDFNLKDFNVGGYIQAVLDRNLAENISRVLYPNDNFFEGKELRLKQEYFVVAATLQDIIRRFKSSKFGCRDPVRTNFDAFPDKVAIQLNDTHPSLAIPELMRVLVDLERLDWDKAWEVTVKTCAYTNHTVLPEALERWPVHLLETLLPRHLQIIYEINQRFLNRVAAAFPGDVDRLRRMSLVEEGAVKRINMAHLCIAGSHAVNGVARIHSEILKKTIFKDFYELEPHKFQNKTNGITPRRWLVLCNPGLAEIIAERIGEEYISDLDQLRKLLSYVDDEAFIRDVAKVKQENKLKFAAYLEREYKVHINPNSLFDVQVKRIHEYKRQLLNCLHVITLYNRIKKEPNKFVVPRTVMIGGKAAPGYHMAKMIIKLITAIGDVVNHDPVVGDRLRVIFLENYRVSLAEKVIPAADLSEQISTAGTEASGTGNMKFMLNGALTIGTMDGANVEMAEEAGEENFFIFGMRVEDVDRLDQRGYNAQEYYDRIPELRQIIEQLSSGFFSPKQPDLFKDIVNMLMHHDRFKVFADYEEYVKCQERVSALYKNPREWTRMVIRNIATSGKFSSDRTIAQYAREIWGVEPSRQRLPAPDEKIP
In words: Glycogen phosphorylase in vitro inhibitory activity assay. Particulars: GPa 250 ng/100 μl, 30° C. 20 minutes, colorimetry at 655 nm. The assay is classed as biochemical. On the procedure:
Glycogen Phosphorylase In Vitro Inhibitory Activity Assay
Preparation of reagents: 1) preparation of color developing solution: 5 g of ammonium molybdate was weighed, dissolved in 500 ml of 1M HCl and stirred with a stirrer until completely dissolved. Then the mixture was added with 190 mg of malachite green with stirring until completely dissolved. The solution prepared was wrapped with an aluminum foil to protect it from exposure to light; 2) preparation of buffer: {circumflex over (1)} 0.5958 g of Hepes was precisely weighed and dissolved in 5 ml H2O. […]
Determination of dose-response curve of rabbit muscle glycogen phosphorylase activity: a dose-response curve was determined by reading OD values of various concentrations of GPa solutions at 655 nm after added with a color developing solution. The amount of GPa can be 250 ng as determined from the dose-response curve.
Experimental procedure: 1) designing PC (positive control), Blank (blank control), positive drug (caffeine); 2) adding 52 μl of reaction buffer; 3) adding the test compound to a final concentration; 4) adding 1 μl of enzyme to a final concentration of 250 ng/100 μl; 5) adding 150 μl of the color developing solution; 6) reacting at 30° C. for 20 minutes; 7) colorimetry determination at a wavelength of 655 nm; 8) reading data and calculating inhibitory activity: Inhibitory Activity=(PC−test sample)/(PC−Blank)

Take `O=C(Nc1ccc2c(c1)C(=O)NCCO2)c1cc2cc(Cl)ccc2[nH]1` [Example 1, 7-(5-Chloro-1H-indole-2-carboxamido)-3,4-dihydrobenzo[f][1,4]oxazepin-5(2H)-one]: the 50% inhibitory concentration (IC50) (as a rule, the concentration that inhibits the measured activity by half) is below 100 nM.
